Test results taken from article PMC4664946, “The standalone aminopeptidase PepN catalyzes the maturation of blasticidin S from leucylblasticidin S” (Scientific Reports, 2015).

Key:
[1] = biological target: T1, PepN1 (Streptomyces lividans, UniProt Q11010); assay: HPLC (UV […] nm) of hydrolysis to blasticidin S; assay type: biochemical; conditions: pH 5 to 9 tested; 30 °C; hydrolysis of the beta-amide bond to leucine
T1 construct: gene pepN; closely located to PepN2 gene
T1 sequence (Q11010 1-857): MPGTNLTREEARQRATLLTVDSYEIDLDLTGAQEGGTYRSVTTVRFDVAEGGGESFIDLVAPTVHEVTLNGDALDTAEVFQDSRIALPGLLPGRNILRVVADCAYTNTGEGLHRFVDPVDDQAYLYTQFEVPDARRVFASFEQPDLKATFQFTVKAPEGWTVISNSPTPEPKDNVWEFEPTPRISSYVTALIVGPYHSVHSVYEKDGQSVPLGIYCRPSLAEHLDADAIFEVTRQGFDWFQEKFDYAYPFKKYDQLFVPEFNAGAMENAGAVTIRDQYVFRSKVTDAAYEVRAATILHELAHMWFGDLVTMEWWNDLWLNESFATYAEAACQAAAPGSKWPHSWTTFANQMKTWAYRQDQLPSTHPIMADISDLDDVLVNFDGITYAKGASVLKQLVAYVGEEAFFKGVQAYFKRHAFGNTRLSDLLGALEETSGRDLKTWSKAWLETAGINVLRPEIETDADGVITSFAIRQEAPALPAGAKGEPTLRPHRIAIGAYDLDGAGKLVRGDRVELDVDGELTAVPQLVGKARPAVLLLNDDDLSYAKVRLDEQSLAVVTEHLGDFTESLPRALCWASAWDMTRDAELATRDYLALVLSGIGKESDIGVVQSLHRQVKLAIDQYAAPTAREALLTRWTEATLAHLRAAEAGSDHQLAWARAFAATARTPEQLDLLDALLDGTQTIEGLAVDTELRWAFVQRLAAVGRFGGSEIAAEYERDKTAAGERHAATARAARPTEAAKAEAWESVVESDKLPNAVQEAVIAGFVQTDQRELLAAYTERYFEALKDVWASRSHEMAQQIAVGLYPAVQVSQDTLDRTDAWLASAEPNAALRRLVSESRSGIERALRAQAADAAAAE

[2] = biological target: T2, PepN (Escherichia coli, UniProt P04825); assay: HPLC (UV […] nm) of hydrolysis to blasticidin S; assay type: biochemical; conditions: 30 °C; 1 μM LBS overnight; pH 5 to 9 tested
T2 sequence (P04825 2-870): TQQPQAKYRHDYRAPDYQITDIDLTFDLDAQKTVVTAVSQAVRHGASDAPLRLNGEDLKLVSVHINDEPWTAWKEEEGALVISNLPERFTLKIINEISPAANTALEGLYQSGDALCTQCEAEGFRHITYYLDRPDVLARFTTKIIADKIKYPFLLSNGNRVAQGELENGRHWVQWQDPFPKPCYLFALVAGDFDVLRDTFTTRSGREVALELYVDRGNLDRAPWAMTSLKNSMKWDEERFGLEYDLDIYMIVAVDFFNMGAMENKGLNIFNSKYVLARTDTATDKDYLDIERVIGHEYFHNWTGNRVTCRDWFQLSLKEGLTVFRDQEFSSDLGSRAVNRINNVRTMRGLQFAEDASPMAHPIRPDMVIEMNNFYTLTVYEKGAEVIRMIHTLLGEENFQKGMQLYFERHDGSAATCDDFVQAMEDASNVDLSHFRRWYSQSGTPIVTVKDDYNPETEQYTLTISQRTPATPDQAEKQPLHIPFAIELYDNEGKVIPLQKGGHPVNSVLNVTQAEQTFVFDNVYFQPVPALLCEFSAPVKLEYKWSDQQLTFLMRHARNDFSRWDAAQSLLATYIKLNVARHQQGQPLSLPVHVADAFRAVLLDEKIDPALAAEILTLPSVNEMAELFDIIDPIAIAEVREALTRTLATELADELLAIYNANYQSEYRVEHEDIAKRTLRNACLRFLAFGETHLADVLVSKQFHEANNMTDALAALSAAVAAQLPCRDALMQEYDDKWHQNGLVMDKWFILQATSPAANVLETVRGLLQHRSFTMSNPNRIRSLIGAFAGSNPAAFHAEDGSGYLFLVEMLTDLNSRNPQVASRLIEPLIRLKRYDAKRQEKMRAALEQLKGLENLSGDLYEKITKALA

Question: What does the source list for CC(C)C[C@H](N)C(=O)N[C@@H](CCN(C)C(=N)N)CC(=O)N[C@H]1C=C[C@H](n2ccc(N)nc2=O)O[C@@H]1C(=O)O [LBS, leucylblasticidin S]?
Answer: HPLC (UV 272 nm) of hydrolysis to blasticidin S [1]: PepN and PepN1 exhibited similar LBS hydrolyzing efficiency; HPLC (UV 272 nm) of hydrolysis to blasticidin S [2]: PepN and PepN1 exhibited similar LBS hydrolyzing efficiency
